Results taken from paper PMC10206040, “Identification of novel anti-amoebic pharmacophores from kinase inhibitor chemotypes” (Frontiers in Microbiology, 2023).
“Also recorded” adds a separate entry of the source. Read-outs that look alike come from different tables or passages of the source.

Legend:
[1] = tested on: Naegleria fowleri (ATCC 30215) trophozoites; experiment: microbe, parasite or virus in culture; conditions: Naegleria fowleri, read-out: Naegleria fowleri EC50 ± SD, logarithmic trophozoites, 72 h, n = 3 (converted)
Method in brief: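 Logarithmic-phase axenic trophozoites in Nelson's complete medium with 10% FBS, exposed to compound 72 h at 34°C, 5% CO2. Viability read as ATP luminescence (CellTiter-Glo 2.0); values from at least three biological replicates with SD.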

THP-1 = experiment: Cytotoxicity assay in THP-1 (MTT); format: cell-based; conditions: Table S2, 72 h, maximal concentration 50 μM
Description: Cytotoxicity assay in TH P-1. Cellular toxicity of all compounds was determined using the colorimetric MTT-based assay after incubation at 37 °C for 72 h in the presence of increasing concentrations of compounds (final maximal concentration was 50 μM in 0.5% DMSO per well) [ 1] . The results are expressed […]
cells. Assays were performed in duplicate at least twice to achieve a minimal n=3 per dose response. […]
Cytotoxicity assay in THP-1. Cellular toxicity of all compounds was determined using the colorimetric MTT-based assay after incubation at 37 °C for 72 h in the presence of increasing concentrations of compounds (final maximal concentration was 50 μM in 0.5% DMSO per well). […] Assays were performed in duplicate at least twice to achieve a minimal n=3 per dose response.

[2] = tested on: Acanthamoeba castellanii T4 isolate (ATCC 50370) trophozoites; experiment: CellTiter-Glo 2.0 trophocidal assay, A. castellanii; format: cell-based; conditions: Acanthamoeba castellanii, ATCC50370, 72 h, read-out: Acanthamoeba castellanii EC50 ± SD
Source text: This isolate was purchased from American Type Culture Collection (ATCC). […] For sub-culturing, cells were mechanically harvested to detach the cells from the culture flasks.

L6 cells = experiment: Rat skeletal muscle cell line (L6) cytotoxicity assay (resazurin); conditions: Table S2; in µM
Description: (§1) One hundred microliters (100 μL) per well of culture medium containing the compounds and controls were added to L6 cells previously cultured (4 × 10^3 L6 cells per well). After 72 h at 37°C the medium was exchanged, and the viable cell number was determined by resazurin (Sigma–Aldrich) reduction. 20 μl of resazurin (1.1 mg/ml) was added to each well and incubated in the dark for 2 h at 37°C.

[3] = as above; conditions: rat, L6 cells (rat skeletal muscle cell line)
Description: as §1

[4] = Human fetal lung fibroblast (MRC5) cell cytotoxicity assay (resazurin); conditions: human, MRC5 cells (human fetal lung fibroblasts)
Method in brief: (§2)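 Log-phase MRC5 fibroblasts, 25,000 per well in DMEM, settled 24 h, then exposed to compound for 48 h at 37 °C, 5% CO2. Resazurin added 4 h before fluorescence read. EC50 from four-parameter fit, duplicates run at least twice.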

MRC5 cells = experiment: as above; conditions: Table S2; in µM
Method in brief: as §2

[5] = tested on: Balamuthia mandrillaris (CDC:V039; ATCC 50209) trophozoites; experiment: CellTiter-Glo 2.0 trophocidal assay, B. mandrillaris; format: cell-based; conditions: read-out: Balamuthia mandrillaris EC50 ± SD
Source text: For sub-culturing, 0.25% Trypsin–EDTA (Gibco) cell detachment reagent was used to detach the cells from the culture flasks.

[6] = cited from earlier work; for blood/brain ratio: 10 mg/kg I.P., 2019; for in vivo toxicity in PK study: dosed I.P. at 10 mg/kg, ref Tear et al., 2020
[7] = logarithmic trophozoites, 72 h, n = 3
[8] = Balamuthia mandrillaris, ATCC50209, 72 h, logarithmic trophozoites, 72 h, n = 3
[9] = Balamuthia mandrillaris, ATCC50209, 72 h

Row | EC50 ([1]; ATCC30215, 72 h) [µM] | Structure (SMILES) | THP-1 TC50 ± Standard Deviation (THP-1) | EC50 [2, 7] [µM] | L6 TC50 ± Standard Deviation (L6 cells) | CC50 at 72 h [3] [µM] | CC50 at 48 h [4] [µM] | MRC5 TC50 ± Standard Deviation (MRC5 cells) | EC50 [5, 8] [µM] | EC50 [5, 7] [µM] | blood/brain ratio ([6]; 0.5 h, ref Klug et al.) | blood/brain ratio ([6]; 4 h, ref Klug et al.) | EC50 ([1]; 72 h) [µM] | in vivo toxicity in PK study ([6]; 10 mg/kg) | EC50 [2] [µM] | EC50 [5, 9] [µM] | in vivo toxicity in PK study [6] | brain exposure in PK ([6]; ref Klug et al., 2021)
1 | > 20 | CCOc1cc(-c2ccnc(N)n2)cc2c1c(N)nn2C [Compound 1d] | > 50 | 12 ± 8.3 | > 17 ± 0.052 | > 17 | > 50 | > 50 | 9.49 ± 0.23 | 9.5 ± 0.23 | – | – | – | – | – | – | – | –
2 | > 20 | Cn1nc2c3c(cc(-c4ccnc(N)n4)cc31)Oc1ccccc1N2 [Compound 1e] | > 50 | > 20 | > 50 | > 50 | > 50 | > 50 | 14 ± 0.29 | – | 2.4 | 2.1 | – | – | – | – | – | –
3 | – | c1cncc(Nc2nccc(-c3cnn4ncccc34)n2)c1 [Compound 2b] | – | – | – | – | > 50 | – | – | – | – | – | 0.3 ± 0.21 | in vivo toxicity was observed; also recorded: acute toxicity was seen | 1.5 ± 0.12 | 5 ± 0.1 | – | –
4 | – | Cc1ccc(Nc2nccc(-c3cnn4ncccc34)n2)cn1 [Compound 2d] | – | – | – | – | > 50 | – | – | – | – | – | 0.43 ± 0.13 | – | 0.92 ± 0.3 | 1.6 ± 0.1 | acute toxicity was seen | –
5 | – | N#Cc1cccc(-c2c[nH]c3ncc(-c4cnn(C5CCNCC5)c4)cc23)c1 [Compound 4c] | – | > 20 | – | – | – | – | – | – | – | – | – | – | – | – | – | negligible brain exposure
